Literature values, collected in US20110206693A1, “LYSINE RIBOSWITCH AND COMPOSITIONS AND USES THEREOF” (priority 2008, published 2011).

System: lysine riboswitch
Conditions: binding to the riboswitch RNA, relative to lysine; Sudarsan 2003 and Blount 2007

Compound | lower affinity than lysine for the RNA [fold]
NCCSC[C@H](N)C(=O)O [AEC, S-(2-aminoethyl)-L-cysteine] | 30
NCCS(=O)(=O)C[C@H](N)C(=O)O [AESA, L-3-[(2-aminoethyl)-sulfonyl]-alanine] | 7

Same assay, conditions: qualitative, compared with lysine

Compound | binding / recognition by the lysine riboswitch (in words)
N=C(N)NCCCC[C@H](N)C(=O)O [homoarginine] | precludes efficient recognition
NCCC[C@H](N)C(=O)O [L-ornithine] | not efficiently bound
C[N+](C)(C)CCCC[C@H](N)C(=O)[O-] [N^6-trimethyl-L-lysine] | precludes efficient recognition
NCCCCC[C@H](N)C(=O)O [L-α-homolysine] | not efficiently bound
